Assay results reported in EP4692321A1, “CELL STRUCTURE PRODUCTION METHOD” (Toppan Holdings Inc., priority 2023, dated 2024).

How the values were obtained:
[1] = tested on: vascularized liver model; test: Vascular toxicity: CD31 immunostaining and blood vessel length after monocrotaline (Test Example 5); type: cell-based, human; conditions: vascularized liver model compared to other models; 0 to 600 µM added on Day 7, 7 further days; relative to no monocrotaline = 100%
Procedure: (§1) Except for using a 24-transwell as the culture vessel, culturing a cell mixture of 1.95 × 10^4 human hepatocytes (PXB Cells (registered trademark); manufactured by PhoenixBio Co., Ltd.) and 3.0 × 10^3 immortalized sinusoidal endothelial cells (SEC; manufactured by Sciencell, Product No. 5000) using the HCM medium including 50 ng/mL VEGF-A and 50 ng/mL VEGF-C as vascular development factors and 1 v/v% vascular maintenance factor cocktail,culturing a cell mixture of human hepatocytes (PXB Cells (registered trademark); manufactured by PhoenixBio Co., Ltd.), 7.5 × 10^3 immortalized sinusoidal endothelial cells (SEC, manufactured by Sciencell, Product No. "5000"), and 3.0 × 10^3 hepatic stellate cells (LX2; manufactured by Sigma-Aldrich) using the HCM medium including 1 v/v% vascular maintenance factor cocktail, orculturing a cell mixture of 2.1 × 10^3 immortalized sinusoidal endothelial cells (SEC; manufactured by Sciencell, Product No. "5000") and 9.0 × 10^3 hepatic stellate cells (LX2; manufactured by Sigma-Aldrich) using the HCM medium including 1 v/v% vascular maintenance factor cocktail, cell mixtures were cultured and cell structures were obtained in the same manner as in Test Example 4. […]
In addition, vascular structures were extracted from the microscopic images shown in FIGS. 8 and 9, and the blood vessel lengths of the cell structures were measured. […]

[2] = tested on: vascularized liver model; test: Cell viability by ATP assay (CellTiter-Glo 3D) after monocrotaline (Test Example 5); type: cell-based, human; conditions: vascularized liver model compared to other models, 0 to 600 µM added on Day 7, 7 further days
Procedure: as §1
In addition, the cell viability of the similarly produced cell structure was also quantified by an ATP assay. […]

`C[C@H]1C(=O)O[C@@H]2CCN3CC=C(COC(=O)[C@](C)(O)[C@]1(C)O)[C@H]23` [monocrotaline] was tested, and the blood vessel length [1] was “notably shorter blood vessel length” and the cell viability [2] was “concentration-dependent decrease in cell viability”.
